How the values were obtained:
[1] = tested on: RTV-1057, patient 98-1057 (RT A98G, Y181C); experiment: Phenotypic susceptibility assay (patient RTV); type: cell-based, HIV-1; conditions: patient RTV pool
Experimental: (§1) The resistance test vectors containing a functional luciferase gene cassette were constructed and host cells were transfected with the resistance test vector DNA. The resistant test vectors contained patient-derived reverse transcriptase and protease sequences that were either susceptible or resistant to the antiretroviral agents, such as nucleoside reverse transcriptase inhibitors, non-nucleoside reverse transcriptase inhibitors and protease inhibitors. […] The IC50 values were determined by plotting percent drug inhibition vs. log10 drug concentration.
(§2) Host cells were seeded in 10-cm-diameter dishes and were transfected several days after plating with resistance test vector plasmid DNA and the envelope expression vector. […] HIV capsid protein (p24) levels in the harvested cell culture media were determined by an EIA method as described by the manufacturer (SIAC; Frederick, Md.). […] The inhibitory effect of the drug was determined using the following equation: % luciferase inhibition=1−(RLUluc [drug]÷RLUluc)×100 where RLUluc [drug] is the relative light unit of luciferase activity in infected cells in the presence of drug and RLUluc is the Relative Light Unit of luciferase activity in infected cells in the absence of drug. […]

[2] = tested on: individual virus clones of patient 302: (K103N, P225H) compared with (K103N, I135M, R211K); experiment: Phenotypic susceptibility assay (patient virus clones); type: cell-based, HIV; conditions: FIG. 8G
Description: as §1, with “inhibitors. The resistance test vector viral particles produced by transfecting the resistance test vector DNA into host cells, either in the presence or absence of protease inhibitors, were used to infect target host cells grown either in the absence of NRTI or NNRTI or in the presence of increasing concentrations of the drug. The amount of luciferase activity produced in infected target host cells in the presence of drug was compared to the amount of luciferase produced in infected target host cells in the absence of drug.” for “inhibitors.”
Host cells were seeded in 10-cm-diameter dishes and were transfected several days after plating with resistance test vector plasmid DNA and the envelope expression vector. […] HIV capsid protein (p24) levels in the harvested cell culture media were determined by an EIA method as described by the manufacturer (SIAC; Frederick, Md.). […]

[3] = tested on: K103N and Y181C double mutant; experiment: Phenotypic susceptibility assay (site directed mutant RTV); type: cell-based, HIV-1; conditions: FIG. 5
Description: Phenotypic drug susceptibility and resistance profile of site directed reverse transcriptase mutants.
as §1, §2

[4] = tested on: RTV-955, patient 98-955 (RT K101E, K103N, Y181C, G190A mixtures); experiment: Phenotypic susceptibility assay (patient RTV); type: cell-based, HIV-1; conditions: patient RTV pool
Experimental: as §1, §2

[5] = tested on: RTV-652, patient 98-652 (RT V108I); experiment: Phenotypic susceptibility assay (patient RTV); type: cell-based, HIV-1; conditions: patient RTV pool; below 1 = increased susceptibility
Experimental: as §1, §2

Row | Structure (SMILES) | decrease in susceptibility (fold, IC50) [1] | effect of P225H on resistance associated with K103N [2] | change in susceptibility [3] | decrease in susceptibility (fold, IC50) [4] | change in susceptibility (fold, IC50) [5]
1 | CC(C)Nc1cccnc1N1CCN(C(=O)c2cc3cc(NS(C)(=O)=O)ccc3[nH]2)CC1 [delavirdine] | 35 fold | reduces the amount delavirdine resistance | further increase in resistance | 4 fold | 0.97 fold
2 | Cc1ccnc2c1NC(=O)c1cccnc1N2C1CC1 [nevirapine] | 610 fold | does not alter | further increase in resistance | 530 fold | 5 fold
